These are literature values, as cited in patent US20020046426A1, “Application of carbonyl compounds in the process of tanning hides” (RHODIA BRASIL LTDA., priority 1999, published 2002).

Broadly, the LD50 is the dose at which mortality reaches 50%.

One data set has as its system mice. The settings on record: mouse, in vivo, po.

`CC(O)CC=O` (centres unmarked) [aldol, 3-hydroxyl butanal]: the median lethal dose (LD50) with mice is on record as 2180 mg/kg.

As for `C/C=C/C=O` [crotonaldehyde, 2-butenal], the “irritation to the eyes” value in the data set with eyes is given as “extremely irritant to the eyes”.
